Target: T1, F508del (Homo sapiens, UniProt P13569, DEL508-508)
T1 construct: expressed in transfected cells
Experiment: Protocol 2: FRET membrane potential optical assay (VIPR), identification of correction compounds
Assay type: cell-based
Conditions: Table 3; compounds of Table 1 as modulators of CFTR activity; protocol not stated
Method in brief: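 Single-addition HTS format: F508del-expressing NIH3T3 cells pre-incubated 16 hrs at 37° C. ± compound, with 27° C. culture as positive control. Channel activation by forskolin 10 μM and genistein 20 μM upon switch to gluconate bath, pH 7.4; read-out is FRET-based depolarization signal.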

T1 sequence (P13569 with tags, fused parts or gaps DEL508-508): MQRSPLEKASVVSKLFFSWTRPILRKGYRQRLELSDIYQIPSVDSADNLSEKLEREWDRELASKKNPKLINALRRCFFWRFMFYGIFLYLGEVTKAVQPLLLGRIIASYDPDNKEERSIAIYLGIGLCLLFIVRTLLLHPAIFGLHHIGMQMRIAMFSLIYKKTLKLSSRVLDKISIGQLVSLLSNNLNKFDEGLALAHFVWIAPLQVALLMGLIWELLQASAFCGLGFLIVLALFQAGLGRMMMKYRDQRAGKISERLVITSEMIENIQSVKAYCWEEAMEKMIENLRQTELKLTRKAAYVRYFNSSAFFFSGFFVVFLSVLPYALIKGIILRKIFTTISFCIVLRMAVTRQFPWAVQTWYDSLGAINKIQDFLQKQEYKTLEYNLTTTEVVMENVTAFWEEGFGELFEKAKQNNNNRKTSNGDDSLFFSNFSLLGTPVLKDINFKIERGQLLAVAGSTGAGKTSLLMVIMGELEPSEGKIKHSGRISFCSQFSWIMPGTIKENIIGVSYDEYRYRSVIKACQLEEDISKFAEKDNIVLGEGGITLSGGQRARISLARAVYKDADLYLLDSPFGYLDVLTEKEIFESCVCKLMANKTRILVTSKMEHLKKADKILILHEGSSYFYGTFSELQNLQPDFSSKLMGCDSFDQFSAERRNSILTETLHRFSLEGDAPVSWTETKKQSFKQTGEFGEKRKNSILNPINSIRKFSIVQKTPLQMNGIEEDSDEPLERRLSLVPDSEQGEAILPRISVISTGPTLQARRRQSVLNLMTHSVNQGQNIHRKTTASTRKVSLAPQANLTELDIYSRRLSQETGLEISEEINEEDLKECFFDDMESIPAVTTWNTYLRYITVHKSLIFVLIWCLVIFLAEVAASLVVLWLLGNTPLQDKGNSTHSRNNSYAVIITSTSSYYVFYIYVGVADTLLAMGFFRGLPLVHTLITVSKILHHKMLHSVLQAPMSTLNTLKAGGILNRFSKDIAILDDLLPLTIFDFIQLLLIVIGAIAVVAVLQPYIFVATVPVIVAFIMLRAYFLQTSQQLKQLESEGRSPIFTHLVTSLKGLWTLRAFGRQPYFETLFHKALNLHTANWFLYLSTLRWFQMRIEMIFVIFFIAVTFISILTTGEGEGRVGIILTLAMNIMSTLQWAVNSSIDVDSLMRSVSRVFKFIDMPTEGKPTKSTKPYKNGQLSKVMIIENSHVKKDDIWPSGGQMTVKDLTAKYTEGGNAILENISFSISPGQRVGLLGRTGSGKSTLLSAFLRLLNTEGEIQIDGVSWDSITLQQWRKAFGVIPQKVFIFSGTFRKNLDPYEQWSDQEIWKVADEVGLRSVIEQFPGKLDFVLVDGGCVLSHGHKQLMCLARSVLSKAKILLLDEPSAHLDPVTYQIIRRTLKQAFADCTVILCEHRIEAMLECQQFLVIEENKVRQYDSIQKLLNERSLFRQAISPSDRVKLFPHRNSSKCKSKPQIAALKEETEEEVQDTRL

In the case of `Cc1cc(C)c(C(C)n2nc(C(C)(C)C)cc2C(=O)NS(=O)(=O)c2ccccc2)c(C)c1` (stereo not drawn) [Compound 201, N-(benzenesulfonyl)-5-tert-butyl-2-[1-(2,4,6-trimethylphenyl)ethyl]pyrazole-3-carboxamide], the EC30 is reported as “+++ (“+++” means <3 uM)”.
In the case of `Cc1cccc(-c2cc(C(=O)NS(=O)(=O)c3ccccc3)n(Cc3c(C)cccc3C)n2)c1` [Compound 202, N-(benzenesulfonyl)-2-[(2,6-dimethylphenyl)methyl]-5-(m-tolyl)pyrazole-3-carboxamide], the EC30 is reported as “+++ (“+++” means <3 uM)”.
For `Cc1cc(C)c(Oc2nc(-c3ccccc3)ccc2C(=O)NS(=O)(=O)c2cccc(N)n2)c(C)c1` [Compound 203, N-[(6-amino-2-pyridyl)sulfonyl]-6-phenyl-2-(2,4,6-trimethylphenoxy)pyridine-3-carboxamide], the EC30 was “+++ (“+++” means <3 uM)”.
For `Cc1ccc(Oc2nc(C(C)(C)C)ccc2C(=O)NS(=O)(=O)c2cccc(N)n2)c(C)c1` [Compound 204, N-[(6-amino-2-pyridyl)sulfonyl]-6-tert-butyl-2-(2,4-dimethylphenoxy)pyridine-3-carboxamide], the EC30 was “+++ (“+++” means <3 uM)”.
In the case of `Cc1cc(C)c(Oc2nc(C(C)(C)C)ccc2C(=O)NS(=O)(=O)c2cccc(C(=O)O)c2)c(C)c1` [Compound 205, 3-[[6-tert-butyl-2-(2,4,6-trimethylphenoxy)pyridine-3-carbonyl]sulfamoyl]benzoic acid], the EC30 is reported as “++ (“++” means between 3 uM and 10 uM)”.
With `COc1ccc(S(=O)(=O)NC(=O)c2ccc(C(C)(C)C)nc2-c2ccc(C)cc2)cc1` [Compound 206, 6-tert-butyl-N-(4-methoxyphenyl)sulfonyl-2-(p-tolyl)pyridine-3-carboxamide] the EC30 was “+++ (“+++” means <3 uM)”.
For `Cc1cc(C)c(Oc2nc(-c3ccc(Cl)cc3F)ccc2C(=O)NS(=O)(=O)c2cccc(N)n2)c(C)c1` [Compound 207, N-[(6-amino-2-pyridyl)sulfonyl]-6-(4-chloro-2-fluoro-phenyl)-2-(2,4,6-trimethylphenoxy)pyridine-3-carboxamide], the EC30 was “+++ (“+++” means <3 uM)”.
For `COc1c(C)cccc1-c1cc(C(=O)NS(=O)(=O)c2cccc(N)c2)n(Cc2c(C)cc(C)cc2C)n1` [Compound 208, N-(3-aminophenyl)sulfonyl-5-(2-methoxy-3-methyl-phenyl)-2-[(2,4,6-trimethylphenyl)methyl]pyrazole-3-carboxamide], the EC30 was “+++ (“+++” means <3 uM)”.
In the case of `Cc1cc(C)c(Cn2nc(-c3c(C)cccc3C)cc2C(=O)NS(=O)(=O)c2cccc(N)c2)c(C)c1` [Compound 209, N-(3-aminophenyl) sulfonyl-5-(2,6-dimethylphenyl)-2-[(2,4,6-trimethylphenyl)methyl]pyrazole-3-carboxamide], the EC30 is reported as “+++ (“+++” means <3 uM)”.
With `Cc1cccc(C)c1Cn1nc(C(C)(C)C)cc1C(=O)NS(=O)(=O)c1cccc2c1ccn2C` [Compound 210, 5-tert-butyl-2-[(2,6-dimethylphenyl)methyl]-N-(1-methylindol-4-yl)sulfonyl-pyrazole-3-carboxamide] the EC30 was “+++ (“+++” means <3 uM)”.
In the case of `Cc1cccc(C)c1Cn1nc(C(C)(C)C)cc1C(=O)NS(=O)(=O)c1cccc2c1OCC2` [Compound 211, 5-tert-butyl-N-(2,3-dihydrobenzofuran-7-ylsulfonyl)-2-[(2,6-dimethylphenyl)methyl]pyrazole-3-carboxamide], the EC30 is reported as “++ (“++” means between 3 uM and 10 uM)”.
For `Cc1cc(C)c(Cn2c(C(=O)NS(=O)(=O)c3ccccc3)cc3ccc(F)cc32)c(C)c1` [Compound 212, N-(benzenesulfonyl)-6-fluoro-1-[(2,4,6-trimethylphenyl)methyl]indole-2-carboxamide], the EC30 was “+++ (“+++” means <3 uM)”.
`Cc1cc(C)c(CN2Cc3ccccc3CC2C(=O)NS(=O)(=O)c2cccc(N)c2)c(C)c1` (stereo not drawn) [Compound 213, N-(3-aminophenyl)sulfonyl-2-[(2,4,6-trimethylphenyl)methyl]-3,4-dihydro-1H-isoquinoline-3-carboxamide] was tested, and the EC30 was “+++ (“+++” means <3 uM)”.
For `Cc1cc(C)c(Oc2nc(C(C)(C)C)ccc2C(=O)NS(=O)(=O)c2ccn[nH]2)c(C)c1` [Compound 214, 6-tert-butyl-N-(1H-pyrazol-5-ylsulfonyl)-2-(2,4,6-trimethylphenoxy)pyridine-3-carboxamide], the EC30 was “+++ (“+++” means <3 uM)”.
With `Cc1cc(C)c(Oc2nc3ccccc3cc2C(=O)NS(=O)(=O)c2ccccc2)c(C)c1` [Compound 215, N-(benzenesulfonyl)-2-(2,4,6-trimethylphenoxy)quinoline-3-carboxamide] the EC30 was “+++ (“+++” means <3 uM)”.
In the case of `Cc1cc(C)c(Oc2nc(-c3ccc(C#N)cc3)ccc2C(=O)NS(=O)(=O)c2cccc(N)n2)c(C)c1` [Compound 216, N-[(6-amino-2-pyridyl)sulfonyl]-6-(4-cyanophenyl)-2-(2,4,6-trimethylphenoxy)pyridine-3-carboxamide], the EC30 is reported as “+++ (“+++” means <3 uM)”.
For `COc1cc(S(=O)(=O)NC(=O)c2ccc(C(C)(C)C)nc2Oc2c(C)cc(C)cc2C)ccn1` [Compound 217, 6-tert-butyl-N-[(2-methoxy-4-pyridyl)sulfonyl]-2-(2,4,6-trimethylphenoxy)pyridine-3-carboxamide], the EC30 was “+++ (“+++” means <3 uM)”.
For `COc1ncccc1S(=O)(=O)NC(=O)C1c2ccccc2CN1Cc1c(C)cc(C)cc1C` (stereo not drawn) [Compound 218, N-[(2-methoxy-3-pyridyl)sulfonyl]-2-[(2,4,6-trimethylphenyl)methyl]isoindoline-1-carboxamide], the EC30 was “++ (“++” means between 3 uM and 10 uM)”.
In the case of `CC(Oc1nc(C(C)(C)C)ccc1C(=O)NS(=O)(=O)c1cccc(N)c1)c1ccccc1` (stereo not drawn) [Compound 219, N-(3-aminophenyl)sulfonyl-6-tert-butyl-2-(1-phenylethoxy)pyridine-3-carboxamide], the EC30 is reported as “+++ (“+++” means <3 uM)”.
In the case of `Cc1cccc(C)c1Cn1nc(-c2cccc(C(F)(F)F)c2)cc1C(=O)NS(=O)(=O)c1ccccc1` [Compound 220, N-(benzenesulfonyl)-2-[(2,6-dimethylphenyl)methyl]-5-[3-(trifluoromethyl)phenyl]pyrazole-3-carboxamide], the EC30 is reported as “+++ (“+++” means <3 uM)”.
For `Cc1cc(C)c(Oc2nc(C(C)(C)C)ccc2C(=O)NS(=O)(=O)c2cccc(N)c2)c(C#N)c1` [Compound 221, N-(3-aminophenyl)sulfonyl-6-tert-butyl-2-(2-cyano-4,6-dimethyl-phenoxy)pyridine-3-carboxamide], the EC30 was “+++ (“+++” means <3 uM)”.
In the case of `Cc1cc(C)c(Oc2nc(C(C)(C)C)ccc2C(=O)NS(=O)(=O)c2ccccn2)c(C)c1` [Compound 222, 6-tert-butyl-N-(2-pyridylsulfonyl)-2-(2,4,6-trimethylphenoxy)pyridine-3-carboxamide], the EC30 is reported as “+++ (“+++” means <3 uM)”.
For `CC(C)(C)c1ccc(C(=O)NS(=O)(=O)c2cccc(N)c2)c(-c2ccc(Cl)cc2)n1` [Compound 223, N-(3-aminophenyl)sulfonyl-6-tert-butyl-2-(4-chlorophenyl)pyridine-3-carboxamide], the EC30 was “+++ (“+++” means <3 uM)”.
`Cc1cc(C)c(Oc2cc(C(C)(C)C)ccc2C(=O)NS(=O)(=O)c2cccc(N)c2)c(C)c1` [Compound 224, N-(3-aminophenyl)sulfonyl-4-tert-butyl-2-(2,4,6-trimethylphenoxy)benzamide] was tested, and the EC30 was “+++ (“+++” means <3 uM)”.
With `Cc1cccc(C)c1Cn1nc(-c2cccc(OC(F)(F)F)c2)cc1C(=O)NS(=O)(=O)c1ccccc1` [Compound 225, N-(benzenesulfonyl)-2-[(2,6-dimethylphenyl)methyl]-5-[3-(trifluoromethoxy)phenyl]pyrazole-3-carboxamide] the EC30 was “+++ (“+++” means <3 uM)”.
For `Cc1cc(C)c(Oc2nc(C(C)(C)C)ccc2C(=O)NS(=O)(=O)c2nc(N)ccc2F)c(C)c1` [Compound 226, N-[(6-Amino-3-fluoro-2-pyridyl)sulfonyl]-6-tert-butyl-2-(2,4,6-trimethylphenoxy)pyridine-3-carboxamide], the EC30 was “+++ (“+++” means <3 uM)”.
`Cc1cc(C)c(Cn2c(C(=O)NS(=O)(=O)c3ccncc3)cc3ccccc32)c(C)c1` [Compound 227, N-(4-pyridylsulfonyl)-1-[(2,4,6-trimethylphenyl)methyl]indole-2-carboxamide] was tested, and the EC30 was “++ (“++” means between 3 uM and 10 uM)”.
With `Cc1cc(C)c(Oc2nc(C(C)(C)C)ccc2C(=O)NS(=O)(=O)c2cccc(N)n2)c(C)c1` [Compound 228, N-[(6-amino-2-pyridyl)sulfonyl]-6-tert-butyl-2-(2,4,6-trimethylphenoxy)pyridine-3-carboxamide] the EC30 was “+++ (“+++” means <3 uM)”.
`CC(C)(C)c1cccc(-c2nc(C(C)(C)C)ccc2C(=O)NS(=O)(=O)c2cccc(N)c2)c1` [Compound 229, N-(3-aminophenyl)sulfonyl-6-tert-butyl-2-(3-tert-butylphenyl)pyridine-3-carboxamide] was tested, and the EC30 was “+++ (“+++” means <3 uM)”.
In the case of `Cc1cc(C)c(CN2Cc3ccccc3C2C(=O)NS(=O)(=O)c2ccccc2N)c(C)c1` (stereo not drawn) [Compound 230, N-(2-aminophenyl)sulfonyl-2-[(2,4,6-trimethylphenyl)methyl]isoindoline-1-carboxamide], the EC30 is reported as “++ (“++” means between 3 uM and 10 uM)”.
With `Cc1cc(C)c(Oc2nc(-c3ccccc3)ccc2C(=O)NS(=O)(=O)c2cccc(N)c2)c(C)c1` [Compound 231, N-(3-aminophenyl)sulfonyl-6-phenyl-2-(2,4,6-trimethylphenoxy)pyridine-3-carboxamide] the EC30 was “+++ (“+++” means <3 uM)”.
`Cc1cc(C)c(Cn2c(C(=O)NS(=O)(=O)c3ccccc3)c(C)c3ccccc32)c(C)c1` [Compound 232, N-(benzenesulfonyl)-3-methyl-1-[(2,4,6-trimethylphenyl)methyl]indole-2-carboxamide] was tested, and the EC30 was “+++ (“+++” means <3 uM)”.
For `CC(C)Oc1ccc(-c2ccc(C(=O)NS(=O)(=O)c3cccc(N)n3)c(N3CCCC(c4ccccc4)C3)n2)cn1` (stereo not drawn) [Compound 233, N-[(6-amino-2-pyridyl)sulfonyl]-6-(6-isopropoxy-3-pyridyl)-2-[-3-phenyl-1-piperidyl]pyridine-3-carboxamide], the EC30 was “+++ (“+++” means <3 uM)”.

Reference: patent US10758534B2 (Vertex Pharmaceuticals Incorporated, priority 2014, dated 2020)
